In article PMC10648875 (Antimicrobial Agents and Chemotherapy, 2023):
In brackets after ≈: the same amount, converted by molar mass.

Columns and labels:
[1] = test system: isogenic efflux and porin mutants of K. pneumoniae and their NDM-1-producing derivatives; assay: MIC against isogenic efflux and porin mutants (Table 9); assay type: cell-based; conditions: for BLI MIC / MIC: BLI alone; for MIC: Klebsiella pneumoniae
IMP-1 = IMP-1 (Serratia marcescens, UniProt P52699); assay: Ki of metallo-β-lactamase inhibition, purified enzyme; assay type: biochemical; conditions: 10-minute preincubation; imipenem substrate; read-out: Ki
IMP-1, sequence (P52699 19-246 limits assumed): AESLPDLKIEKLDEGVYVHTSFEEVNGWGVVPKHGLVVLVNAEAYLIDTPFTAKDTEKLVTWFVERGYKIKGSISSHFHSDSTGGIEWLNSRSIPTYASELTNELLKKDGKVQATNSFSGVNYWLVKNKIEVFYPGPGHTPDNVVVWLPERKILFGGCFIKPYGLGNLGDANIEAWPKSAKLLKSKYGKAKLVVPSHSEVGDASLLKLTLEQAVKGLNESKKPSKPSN
Protocol: (§1) The majority of purified β-lactamase enzymes used in the study were either expressed and purified internally ([35]) or obtained from Emerald Biostructures (Bainbridge Island, WA, USA). L1 enzyme was purified as described in reference ([36]).
(§2) Enzymes were mixed with BLIs at concentrations varying from 160 to 0.0027 µM in 50-mM Na-phosphate pH7.0, 0.1-mg/mL bovide serum albumin (BSA) (buffer A; 20-µM ZnCl2 was also added for all metalloenzymes) and incubated for 10 minutes at 37°C. Nitrocefin (50 µM) (10 µM for SHV-12) or 100 µM of imipenem (prewarmed at 37°C for 10 minutes) was added, and substrate cleavage profiles were recorded at 37°C at 490 nm every 10 seconds for 10 minutes or at 294 nm every 30 seconds for 1 hour for nitrocefin and imipenem, respectively. […] Ki app values (Ki for metalloenzymes) were calculated by the method of Waley ([37]).

IMP-26 = IMP-26 (Pseudomonas aeruginosa, UniProt D0V558); assay: as above; assay type: biochemical; conditions: 10-minute preincubation; nitrocefin substrate
IMP-26, sequence (D0V558 entry or part of it): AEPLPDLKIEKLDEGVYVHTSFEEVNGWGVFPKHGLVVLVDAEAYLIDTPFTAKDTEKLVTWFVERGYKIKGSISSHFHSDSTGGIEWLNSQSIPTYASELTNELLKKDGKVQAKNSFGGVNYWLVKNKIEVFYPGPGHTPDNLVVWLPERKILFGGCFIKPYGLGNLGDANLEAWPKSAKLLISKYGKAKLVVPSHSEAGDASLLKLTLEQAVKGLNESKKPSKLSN
Protocol: as §1, §2

SHV-12 = SHV-12 (Klebsiella pneumoniae, UniProt P0AD64, E235K/G234S/L31Q); assay: Ki app of β-lactamase inhibition, purified enzyme; assay type: biochemical; conditions: 10-minute preincubation; nitrocefin substrate; read-out: Ki app
SHV-12, sequence (P0AD64 22-286 L31Q/G234S/E235K): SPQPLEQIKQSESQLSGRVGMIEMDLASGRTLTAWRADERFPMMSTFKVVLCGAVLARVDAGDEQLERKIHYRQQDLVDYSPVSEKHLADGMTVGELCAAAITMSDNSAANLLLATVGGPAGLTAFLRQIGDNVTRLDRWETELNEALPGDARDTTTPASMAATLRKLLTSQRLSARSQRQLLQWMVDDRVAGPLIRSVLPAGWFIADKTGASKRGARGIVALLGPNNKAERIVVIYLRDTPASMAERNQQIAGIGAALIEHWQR
Protocol: as §1, §2

[2] = parameters: method as in PMID 31871094; conditions: cited from earlier work
KPC-2 = KPC-2 (Klebsiella pneumoniae, UniProt Q9F663); assay: Ki app of β-lactamase inhibition, purified enzyme; assay type: biochemical; conditions: 10-minute preincubation; nitrocefin substrate
KPC-2, sequence (Q9F663 25-293 limits assumed): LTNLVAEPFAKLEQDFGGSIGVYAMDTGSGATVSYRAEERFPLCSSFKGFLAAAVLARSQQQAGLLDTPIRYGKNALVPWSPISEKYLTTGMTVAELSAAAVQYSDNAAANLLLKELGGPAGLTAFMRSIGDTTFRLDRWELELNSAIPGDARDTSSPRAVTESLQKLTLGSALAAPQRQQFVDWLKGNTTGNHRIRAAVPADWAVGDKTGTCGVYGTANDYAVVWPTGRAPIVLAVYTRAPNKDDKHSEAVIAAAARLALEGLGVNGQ
Protocol: as §1, §2

[3] = test system: NDM-9 (lysate of NDM-9-producing strain); conditions: read-out: IC50 of inhibition of imipenem hydrolysis in cell lysates; cited from earlier work
[4] = cited from earlier work
[5] = test system: Escherichia coli NCTC 13353 (ECM7514), CTX-M-15; parameters: method as in earlier work; conditions: quality control range; ref CLSI; cited from earlier work
[6] = test system: Klebsiella pneumoniae ATCC 700603 (KPM2881), SHV-18; parameters: method as in earlier work; conditions: quality control range; ref CLSI; cited from earlier work
[7] = test system: K. pneumoniae ATCC BAA-2814 (KP1074), KPC-3; parameters: method as in earlier work; conditions: quality control range; ref CLSI; cited from earlier work
[8] = test system: K. pneumoniae ATCC BAA-1705 (KPM1123), KPC-2; parameters: method as in earlier work; conditions: quality control range; ref CLSI; cited from earlier work
[9] = KPM1026a, Wild type, ATCC 43816, β-lactamase None, BLI 0 µg/mL
[10] = KPM1026a, Wild type, ATCC 43816, β-lactamase None, BLI 4 µg/mL
[11] = KPM1026a, Wild type, ATCC 43816, β-lactamase None, BLI 8 µg/mL
[12] = KPM1027, ramR*, β-lactamase None, BLI 0 µg/mL
[13] = KPM1027, ramR*, β-lactamase None, BLI 4 µg/mL
[14] = KPM1027, ramR*, β-lactamase None, BLI 8 µg/mL
[15] = KPM1281, Wild type, ATCC 43816, NDM-1, BLI 0 µg/mL
[16] = KPM1281, Wild type, ATCC 43816, NDM-1, BLI 4 µg/mL
[17] = KPM1281, Wild type, ATCC 43816, NDM-1, BLI 8 µg/mL
[18] = KPM1282, ramR*, NDM-1, BLI 0 µg/mL
[19] = KPM1282, ramR*, NDM-1, BLI 4 µg/mL
[20] = KPM1282, ramR*, NDM-1, BLI 8 µg/mL
[21] = KPM2013, mpK36_2040 ΔompK35, β-lactamase None, BLI 0 µg/mL
[22] = KPM2013, mpK36_2040 ΔompK35, β-lactamase None, BLI 4 µg/mL
[23] = KPM2013, mpK36_2040 ΔompK35, β-lactamase None, BLI 8 µg/mL
[24] = KPM2013, mpK36_2040 ΔompK35, β-lactamase None
[25] = KPM2040, mpK36_2040*, β-lactamase None, BLI 0 µg/mL
[26] = KPM2040, mpK36_2040*, β-lactamase None, BLI 4 µg/mL
[27] = KPM2040, mpK36_2040*, β-lactamase None, BLI 8 µg/mL
[28] = KPM2040, mpK36_2040*, β-lactamase None
[29] = KPM3820, mpK36_2040*, NDM-1, BLI 0 µg/mL
[30] = KPM3820, mpK36_2040*, NDM-1, BLI 4 µg/mL
[31] = KPM3820, mpK36_2040*, NDM-1, BLI 8 µg/mL
[32] = KPM3825, mpK36_2040 ΔompK35, NDM-1, BLI 0 µg/mL
[33] = KPM3825, mpK36_2040 ΔompK35, NDM-1, BLI 4 µg/mL
[34] = KPM3825, mpK36_2040 ΔompK35, NDM-1, BLI 8 µg/mL
[35] = KPM3825, mpK36_2040 ΔompK35, NDM-1

## NCCN[C@H]1CC[C@H](CC(=O)N[C@H]2Cc3cccc(C(=O)O)c3OB2O)CC1 [Taniborbactam, taniborbactam]
[1]; [9]
  Cefepime MIC with BLIs: 0.03 µg/mL
  Meropenem MIC with BLIs: 0.03 µg/mL
[1]; [10]
  Cefepime MIC with BLIs: 0.03 µg/mL
  Meropenem MIC with BLIs: 0.03 µg/mL
[1]; [11]
  Cefepime MIC with BLIs: 0.03 µg/mL
  Meropenem MIC with BLIs: 0.03 µg/mL
[1]; KPM1026a, Wild type, ATCC 43816, β-lactamase None
  BLI MIC: >64 µg/mL
[1]; [12]
  Cefepime MIC with BLIs: 0.25 µg/mL
  Meropenem MIC with BLIs: 0.06 µg/mL
[1]; [13]
  Cefepime MIC with BLIs: 0.25 µg/mL
  Meropenem MIC with BLIs: 0.06 µg/mL
[1]; [14]
  Cefepime MIC with BLIs: 0.25 µg/mL
  Meropenem MIC with BLIs: 0.06 µg/mL
[1]; KPM1027, ramR*, β-lactamase None
  BLI MIC: >64 µg/mL
[1]; [15]
  Cefepime MIC with BLIs: 16 µg/mL
  Meropenem MIC with BLIs: 32 µg/mL
[1]; [16]
  Cefepime MIC with BLIs: 0.25 µg/mL
  Meropenem MIC with BLIs: 0.125 µg/mL
[1]; [17]
  Cefepime MIC with BLIs: 0.125 µg/mL
  Meropenem MIC with BLIs: 0.06 µg/mL
[1]; KPM1281, Wild type, ATCC 43816, NDM-1
  BLI MIC: >64 µg/mL
[1]; [18]
  Cefepime MIC with BLIs: 32 µg/mL
  Meropenem MIC with BLIs: 64 µg/mL
[1]; [19]
  Cefepime MIC with BLIs: 0.5 µg/mL
  Meropenem MIC with BLIs: 0.25 µg/mL
[1]; [20]
  Cefepime MIC with BLIs: 0.5 µg/mL
  Meropenem MIC with BLIs: 0.125 µg/mL
[1]; KPM1282, ramR*, NDM-1
  BLI MIC: >64 µg/mL
[1]; [21]
  Cefepime MIC with BLIs: 0.5 µg/mL
  Meropenem MIC with BLIs: 0.25 µg/mL
[1]; [22]
  Cefepime MIC with BLIs: 0.5 µg/mL
  Meropenem MIC with BLIs: 0.25 µg/mL
[1]; [23]
  Cefepime MIC with BLIs: 0.5 µg/mL
  Meropenem MIC with BLIs: 0.25 µg/mL
[1]; [24]
  BLI MIC: >64 µg/mL
[1]; [25]
  Cefepime MIC with BLIs: 0.125 µg/mL
  Meropenem MIC with BLIs: 0.125 µg/mL
[1]; [26]
  Cefepime MIC with BLIs: 0.125 µg/mL
  Meropenem MIC with BLIs: 0.125 µg/mL
[1]; [27]
  Cefepime MIC with BLIs: 0.125 µg/mL
  Meropenem MIC with BLIs: 0.125 µg/mL
[1]; [28]
  BLI MIC: >64 µg/mL
[1]; [29]
  Cefepime MIC with BLIs: 128 µg/mL
  Meropenem MIC with BLIs: 128 µg/mL
[1]; [30]
  Cefepime MIC with BLIs: 4 µg/mL
  Meropenem MIC with BLIs: 8 µg/mL
[1]; [31]
  Cefepime MIC with BLIs: 2 µg/mL
  Meropenem MIC with BLIs: 4 µg/mL
[1]; KPM3820, mpK36_2040*, NDM-1
  BLI MIC: >64 µg/mL
[1]; [32]
  Cefepime MIC with BLIs: 256 µg/mL
  Meropenem MIC with BLIs: 256 µg/mL
[1]; [33]
  Cefepime MIC with BLIs: 8 µg/mL
  Meropenem MIC with BLIs: 32 µg/mL
[1]; [34]
  Cefepime MIC with BLIs: 4 µg/mL
  Meropenem MIC with BLIs: 16 µg/mL
[1]; [35]
  BLI MIC: >64 µg/mL
IMP-1
  Ki: > 20000 nM
IMP-26
  Ki: > 20000 nM
SHV-12
  Ki: 0.15 ± 0.03 nM
[2]
  concentration at which direct antibacterial activity is lacking: > 512 µg/mL

## O=C(O)c1c(F)ccc2c1OB(O)[C@@H]1C[C@H]21 [Xeruborbactam, xeruborbactam]
[1]; [9]
  Cefepime MIC with BLIs: 0.03 µg/mL
  Meropenem MIC with BLIs: 0.03 µg/mL
[1]; [10]
  Cefepime MIC with BLIs: 0.015 µg/mL
  Meropenem MIC with BLIs: 0.015 µg/mL
[1]; [11]
  Cefepime MIC with BLIs: 0.002 µg/mL
  Meropenem MIC with BLIs: 0.008 µg/mL
[1]; [12]
  Cefepime MIC with BLIs: 0.25 µg/mL
  Meropenem MIC with BLIs: 0.06 µg/mL
[1]; [13]
  Cefepime MIC with BLIs: 0.125 µg/mL
  Meropenem MIC with BLIs: 0.015 µg/mL
[1]; [14]
  Cefepime MIC with BLIs: 0.015 µg/mL
  Meropenem MIC with BLIs: 0.004 µg/mL
[1]; [15]
  Cefepime MIC with BLIs: 16 µg/mL
  Meropenem MIC with BLIs: 32 µg/mL
[1]; [16]
  Cefepime MIC with BLIs: 0.03 µg/mL
  Meropenem MIC with BLIs: 0.06 µg/mL
[1]; [17]
  Cefepime MIC with BLIs: 0.008 µg/mL
  Meropenem MIC with BLIs: 0.004 µg/mL
[1]; [18]
  Cefepime MIC with BLIs: 32 µg/mL
  Meropenem MIC with BLIs: 64 µg/mL
[1]; [19]
  Cefepime MIC with BLIs: 0.25 µg/mL
  Meropenem MIC with BLIs: 0.125 µg/mL
[1]; [20]
  Cefepime MIC with BLIs: 0.06 µg/mL
  Meropenem MIC with BLIs: 0.03 µg/mL
[1]; [21]
  Cefepime MIC with BLIs: 0.5 µg/mL
  Meropenem MIC with BLIs: 0.25 µg/mL
[1]; [22]
  Cefepime MIC with BLIs: 0.25 µg/mL
  Meropenem MIC with BLIs: 0.125 µg/mL
[1]; [23]
  Cefepime MIC with BLIs: 0.06 µg/mL
  Meropenem MIC with BLIs: 0.06 µg/mL
[1]; [25]
  Cefepime MIC with BLIs: 0.125 µg/mL
  Meropenem MIC with BLIs: 0.125 µg/mL
[1]; [26]
  Cefepime MIC with BLIs: 0.06 µg/mL
  Meropenem MIC with BLIs: 0.06 µg/mL
[1]; [27]
  Cefepime MIC with BLIs: 0.015 µg/mL
  Meropenem MIC with BLIs: 0.03 µg/mL
[1]; [29]
  Cefepime MIC with BLIs: 128 µg/mL
  Meropenem MIC with BLIs: 128 µg/mL
[1]; [30]
  Cefepime MIC with BLIs: 1 µg/mL
  Meropenem MIC with BLIs: 4 µg/mL
[1]; [31]
  Cefepime MIC with BLIs: 0.5 µg/mL
  Meropenem MIC with BLIs: 1 µg/mL
[1]; [32]
  Cefepime MIC with BLIs: 256 µg/mL
  Meropenem MIC with BLIs: 256 µg/mL
[1]; [33]
  Cefepime MIC with BLIs: 2 µg/mL
  Meropenem MIC with BLIs: 8 µg/mL
[1]; [34]
  Cefepime MIC with BLIs: 1 µg/mL
  Meropenem MIC with BLIs: 2 µg/mL
[1]; ATCC43816, KPM1026a, Wild type, ATCC 43816, β-lactamase None
  MIC: 16 µg/mL (≈ 72.1 µM)
[1]; ATCC43816, KPM1281, Wild type, ATCC 43816, NDM-1
  MIC: 16 µg/mL (≈ 72.1 µM)
[1]; [24]
  MIC: 32 µg/mL (≈ 144 µM)
[1]; [28]
  MIC: 32 µg/mL (≈ 144 µM)
[1]; KPM3820, mpK36_2040*, NDM-1
  MIC: 32 µg/mL (≈ 144 µM)
[1]; [35]
  MIC: 32 µg/mL (≈ 144 µM)
KPC-2
  Ki: 1.4 ± 0.2 nM
[3]
  IC50: 1200 ± 100 nM
[4]; phase I subjects, 500-mg loading dose then 250 mg every 8 hours by 3-hour infusion
  steady-state plasma concentration: ~ 7 µg/mL
[4]; phase I, intravenous or oral (prodrug), doses of 1,000 mg/day or less
  safety and tolerability: safe and well tolerated

## CO/N=C(\C(=O)N[C@@H]1C(=O)N2C(C(=O)[O-])=C(C[N+]3(C)CCCC3)CS[C@H]12)c1csc(N)n1 [FEP, cefepime]
[5]
  CLSI approved MIC range: > 64 µg/mL
[6]
  CLSI approved MIC range: 0.5 to 2 µg/mL

## C[C@@H](O)[C@H]1C(=O)N2C(C(=O)O)=C(S[C@@H]3CN[C@H](C(=O)N(C)C)C3)[C@H](C)[C@H]12 [MEM, meropenem]
[7]
  CLSI approved MIC range: 32 to 256 µg/mL
[8]
  CLSI approved MIC range: 8.0 to 64 µg/mL
